Article PMC8954523 (Pharmaceutics, 2022)

Assay: Dissolution and solvation thermodynamic functions (van't Hoff; solubility minus sublimation)
Format: physicochemical
Method: The dissolution thermodynamic parameters on the standard state were determined using mole fraction unitary units. […] Since the resulting solutions are very dilute, and their densities are very close to those of the pure solvents. The density values of the pure solvents were used in calculations (Table S1). […] The temperature dependences of the experimental solubility were treated mathematically by the van't Hoff equation, and the apparent solution enthalpies ΔHsol0 were determined as follows:(3) ∂(lnX2)/∂T=ΔHsol0/RT^2 […] Next, the apparent solution entropies ΔSsol0 were derived by the equation:(5) ΔGsol0=ΔHso[…] The solvation of one mole of the solute molecules in the solvent can be defined as the total change of the standard thermodynamic functions ( ΔGsolv0 , ΔHsolv0 , ΔSsolv0 ) of the compound upon transferring it from the gaseous phase (ideal gas; single molecules without interaction) into the solvent. The transfer process can be presented as the difference between the dissolution and sublimation thermodynamic functions by:(6) ΔYsolv0=ΔYso[…] where ΔY^0 is the standard change of any of the thermodynamic functions (ΔG^0, ΔH^0, ΔS^0) of solvation ( ΔYsolv0 ), dissolution ( ΔYsol0 ) or sublimation ( ΔYsubo ).

[1] = Table S6, 1-octanol, all studied temperatures
[2] = Table S6, ethanol, all studied temperatures
[3] = Table S6, n-hexane, all studied temperatures
[4] = Table S6, water, all studied temperatures

Structure (SMILES): CC(O)(CS(=O)(=O)c1ccc(F)cc1)C(=O)Nc1ccc(C#N)c(C(F)(F)F)c1 (centres unmarked) [BCL, bicalutamide]
- TΔSsol0 (1-octanol, 298.15 K): 0.263 kcal/mol
- ΔGsol0 (1-octanol, 298.15 K): 4.9 kcal/mol
- ΔHsol0 (1-octanol, 298.15 K): 5.16 ± 0.096 kcal/mol
- ΔSsol0 (1-octanol, 298.15 K): 3.7 ± 3.6 J∙mol^−1·K^−1
- ζHsolv (1-octanol, 298.15 K): 63.3%
- ζTSsolv (1-octanol, 298.15 K): 36.7%
- −TΔSsolv0 (1-octanol, 298.15 K): 14.3 kcal/mol
- −ΔGsolv0 (1-octanol, 298.15 K): 10.3 kcal/mol
- −ΔHsolv0 (1-octanol, 298.15 K): 24.64 kcal/mol
- −ΔSsolv0 (1-octanol, 298.15 K): 200.9 J∙mol^−1·K^−1
- TΔSsol0 (Table S6, 1-octanol, 293.15 K): 0.265 kcal/mol
- ΔGsol0 (Table S6, 1-octanol, 293.15 K): 4.897 kcal/mol
- ΔSsol0 (Table S6, 1-octanol, 293.15 K): 3.79 J∙mol-1·K-1
- ζTSsolv (Table S6, 1-octanol, 293.15 K): 36.74%
- −TΔSsolv0 (Table S6, 1-octanol, 293.15 K): 14.31 kcal/mol
- −ΔGsolv0 (Table S6, 1-octanol, 293.15 K): 10.33 kcal/mol
- TΔSsol0 (Table S6, 1-octanol, 298.15 K): 0.265 kcal/mol
- ΔGsol0 (Table S6, 1-octanol, 298.15 K): 4.897 kcal/mol
- ΔSsol0 (Table S6, 1-octanol, 298.15 K): 3.73 J∙mol-1·K-1
- ζTSsolv (Table S6, 1-octanol, 298.15 K): 36.74%
- −TΔSsolv0 (Table S6, 1-octanol, 298.15 K): 14.31 kcal/mol
- −ΔGsolv0 (Table S6, 1-octanol, 298.15 K): 10.33 kcal/mol
- −ΔSsolv0 (Table S6, 1-octanol, 298.15 K): 200.87 J∙mol-1·K-1
- TΔSsol0 (Table S6, 1-octanol, 303.15 K): 0.275 kcal/mol
- ΔGsol0 (Table S6, 1-octanol, 303.15 K): 4.888 kcal/mol
- ΔSsol0 (Table S6, 1-octanol, 303.15 K): 3.81 J∙mol-1·K-1
- ζHsolv (Table S6, 1-octanol, 303.15 K): 63.27%
- ζTSsolv (Table S6, 1-octanol, 303.15 K): 36.73%
- −TΔSsolv0 (Table S6, 1-octanol, 303.15 K): 14.3 kcal/mol
- −ΔGsolv0 (Table S6, 1-octanol, 303.15 K): 10.34 kcal/mol
- TΔSsol0 (Table S6, 1-octanol, 308.15 K): 0.272 kcal/mol
- ΔGsol0 (Table S6, 1-octanol, 308.15 K): 4.89 kcal/mol
- ΔSsol0 (Table S6, 1-octanol, 308.15 K): 3.70 J∙mol-1·K-1
- ζHsolv (Table S6, 1-octanol, 308.15 K): 63.27%
- ζTSsolv (Table S6, 1-octanol, 308.15 K): 36.73%
- −TΔSsolv0 (Table S6, 1-octanol, 308.15 K): 14.31 kcal/mol
- −ΔGsolv0 (Table S6, 1-octanol, 308.15 K): 10.33 kcal/mol
- TΔSsol0 (Table S6, 1-octanol, 313.15 K): 0.287 kcal/mol
- ΔGsol0 (Table S6, 1-octanol, 313.15 K): 4.876 kcal/mol
- ΔSsol0 (Table S6, 1-octanol, 313.15 K): 3.82 J∙mol-1·K-1
- ζHsolv (Table S6, 1-octanol, 313.15 K): 63.29%
- −ΔSsolv0 (Table S6, 1-octanol, 313.15 K): 190.96 J∙mol-1·K-1
- ΔHsol0 [1]: 5.16 kcal/mol
- −ΔHsolv0 [1]: 24.64 kcal/mol
- TΔSsol0 (Table S6, ethanol, 293.15 K): 2.964 kcal/mol
- ΔGsol0 (Table S6, ethanol, 293.15 K): 3.944 kcal/mol
- ΔSsol0 (Table S6, ethanol, 293.15 K): 42.29 J∙mol-1·K-1
- ζHsolv (Table S6, ethanol, 293.15 K): 66.34%
- TΔSsol0 (Table S6, ethanol, 298.15 K): 3.023 kcal/mol
- ΔGsol0 (Table S6, ethanol, 298.15 K): 3.872 kcal/mol
- ΔSsol0 (Table S6, ethanol, 298.15 K): 42.43 J∙mol-1·K-1
- ζTSsolv (Table S6, ethanol, 298.15 K): 33.54%
- −ΔGsolv0 (Table S6, ethanol, 298.15 K): 11.34 kcal/mol
- TΔSsol0 (Table S6, ethanol, 303.15 K): 3.081 kcal/mol
- ΔGsol0 (Table S6, ethanol, 303.15 K): 3.826 kcal/mol
- ΔSsol0 (Table S6, ethanol, 303.15 K): 42.52 J∙mol-1·K-1
- ζTSsolv (Table S6, ethanol, 303.15 K): 33.43%
- −TΔSsolv0 (Table S6, ethanol, 303.15 K): 11.5 kcal/mol
- −ΔGsolv0 (Table S6, ethanol, 303.15 K): 11.4 kcal/mol
- −ΔSsolv0 (Table S6, ethanol, 303.15 K): 158.70 J∙mol-1·K-1
- TΔSsol0 (Table S6, ethanol, 308.15 K): 3.136 kcal/mol
- ΔGsol0 (Table S6, ethanol, 308.15 K): 3.772 kcal/mol
- ΔSsol0 (Table S6, ethanol, 308.15 K): 42.56 J∙mol-1·K-1
- ζTSsolv (Table S6, ethanol, 308.15 K): 33.32%
- −TΔSsolv0 (Table S6, ethanol, 308.15 K): 11.44 kcal/mol
- −ΔGsolv0 (Table S6, ethanol, 308.15 K): 11.45 kcal/mol
- TΔSsol0 (Table S6, ethanol, 313.15 K): 3.162 kcal/mol
- ΔGsol0 (Table S6, ethanol, 313.15 K): 3.745 kcal/mol
- ΔSsol0 (Table S6, ethanol, 313.15 K): 42.24 J∙mol-1·K-1
- ζTSsolv (Table S6, ethanol, 313.15 K): 33.27%
- −TΔSsolv0 (Table S6, ethanol, 313.15 K): 11.42 kcal/mol
- −ΔGsolv0 (Table S6, ethanol, 313.15 K): 11.48 kcal/mol
- ΔHsol0 [2]: 6.91 kcal/mol
- −ΔHsolv0 [2]: 22.9 kcal/mol
- TΔSsol0 (Table S6, n-hexane, 293.15 K): 3.537 kcal/mol
- ΔGsol0 (Table S6, n-hexane, 293.15 K): 8.222 kcal/mol
- ζTSsolv (Table S6, n-hexane, 293.15 K): 37.96%
- TΔSsol0 (Table S6, n-hexane, 298.15 K): 3.59 kcal/mol
- ΔGsol0 (Table S6, n-hexane, 298.15 K): 8.174 kcal/mol
- ΔSsol0 (Table S6, n-hexane, 298.15 K): 50.70 J∙mol-1·K-1
- ζHsolv (Table S6, n-hexane, 298.15 K): 62.20%
- −TΔSsolv0 (Table S6, n-hexane, 298.15 K): 10.97 kcal/mol
- −ΔSsolv0 (Table S6, n-hexane, 298.15 K): 153.88 J∙mol-1·K-1
- TΔSsol0 (Table S6, n-hexane, 303.15 K): 3.681 kcal/mol
- ΔGsol0 (Table S6, n-hexane, 303.15 K): 8.078 kcal/mol
- ΔSsol0 (Table S6, n-hexane, 303.15 K): 50.81 J∙mol-1·K-1
- ζTSsolv (Table S6, n-hexane, 303.15 K): 37.65%
- −ΔSsolv0 (Table S6, n-hexane, 303.15 K): 150.42 J∙mol-1·K-1
- TΔSsol0 (Table S6, n-hexane, 308.15 K): 3.738 kcal/mol
- ΔGsol0 (Table S6, n-hexane, 308.15 K): 8.021 kcal/mol
- ΔSsol0 (Table S6, n-hexane, 308.15 K): 50.75 J∙mol-1·K-1
- ζTSsolv (Table S6, n-hexane, 308.15 K): 37.53%
- −TΔSsolv0 (Table S6, n-hexane, 308.15 K): 10.84 kcal/mol
- −ΔGsolv0 (Table S6, n-hexane, 308.15 K): 7.204 kcal/mol
- −ΔSsolv0 (Table S6, n-hexane, 308.15 K): 147.20 J∙mol-1·K-1
- TΔSsol0 (Table S6, n-hexane, 313.15 K): 3.793 kcal/mol
- ΔGsol0 (Table S6, n-hexane, 313.15 K): 7.966 kcal/mol
- ζTSsolv (Table S6, n-hexane, 313.15 K): 37.41%
- −TΔSsolv0 (Table S6, n-hexane, 313.15 K): 10.79 kcal/mol
- −ΔGsolv0 (Table S6, n-hexane, 313.15 K): 7.259 kcal/mol
- TΔSsol0 (Table S6, n-hexane, 318.15 K): 3.841 kcal/mol
- ΔGsol0 (Table S6, n-hexane, 318.15 K): 7.918 kcal/mol
- ΔSsol0 (Table S6, n-hexane, 318.15 K): 50.50 J∙mol-1·K-1
- ζHsolv (Table S6, n-hexane, 318.15 K): 62.69%
- −TΔSsolv0 (Table S6, n-hexane, 318.15 K): 10.74 kcal/mol
- −ΔGsolv0 (Table S6, n-hexane, 318.15 K): 7.306 kcal/mol
- −ΔSsolv0 (Table S6, n-hexane, 318.15 K): 141.22 J∙mol-1·K-1
- ΔHsol0 [3]: 11.8 kcal/mol
- −ΔHsolv0 [3]: 18 kcal/mol
- ζHsolv (Table S6, water, 293.15 K): 58.17%
- ζHsolv (Table S6, water, 298.15 K): 58.17%
- −ΔSsolv0 (Table S6, water, 298.15 K): 211.97 J∙mol-1·K-1
- ζHsolv (Table S6, water, 303.15 K): 58.17%
- ζHsolv (Table S6, water, 308.15 K): 58.13%
- −TΔSsolv0 (Table S6, water, 308.15 K): 15.13 kcal/mol
- −ΔGsolv0 (Table S6, water, 308.15 K): 5.877 kcal/mol
- −ΔSsolv0 (Table S6, water, 308.15 K): 205.45 J∙mol-1·K-1
- ζHsolv (Table S6, water, 313.15 K): 58.12%
- −TΔSsolv0 (Table S6, water, 313.15 K): 15.14 kcal/mol
- −ΔGsolv0 (Table S6, water, 313.15 K): 5.872 kcal/mol
- ΔHsol0 [4]: 8.8 kcal/mol
- −ΔHsolv0 [4]: 21 kcal/mol
- TΔSsol0 (ethanol, 298.15 K): 3.04 kcal/mol
- ΔGsol0 (ethanol, 298.15 K): 3.87 kcal/mol
- ΔHsol0 (ethanol, 298.15 K): 6.91 ± 0.22 kcal/mol
- ΔSsol0 (ethanol, 298.15 K): 42.6 ± 5.1 J∙mol^−1·K^−1
- ζHsolv (ethanol, 298.15 K): 66.5%
- ζTSsolv (ethanol, 298.15 K): 33.5%
- −TΔSsolv0 (ethanol, 298.15 K): 11.5 kcal/mol
- −ΔGsolv0 (ethanol, 298.15 K): 11.4 kcal/mol
- −ΔHsolv0 (ethanol, 298.15 K): 22.9 kcal/mol
- −ΔSsolv0 (ethanol, 298.15 K): 162.0 J∙mol^−1·K^−1
- TΔSsol0 (n-hexane, 298.15 K): 3.59 kcal/mol
- ΔGsol0 (n-hexane, 298.15 K): 8.17 kcal/mol
- ΔHsol0 (n-hexane, 298.15 K): 11.8 ± 0.17 kcal/mol
- ΔSsol0 (n-hexane, 298.15 K): 50.3 ± 3.4 J∙mol^−1·K^−1
- ζHsolv (n-hexane, 298.15 K): 62.1%
- ζTSsolv (n-hexane, 298.15 K): 37.9%
- −TΔSsolv0 (n-hexane, 298.15 K): 11 kcal/mol
- −ΔGsolv0 (n-hexane, 298.15 K): 7.05 kcal/mol
- −ΔHsolv0 (n-hexane, 298.15 K): 18 kcal/mol
- −ΔSsolv0 (n-hexane, 298.15 K): 154.3 J∙mol^−1·K^−1
- TΔSsol0 (water, 298.15 K): -0.526 kcal/mol
- ΔGsol0 (water, 298.15 K): 9.32 kcal/mol
- ΔHsol0 (water, 298.15 K): 8.8 ± 0.14 kcal/mol
- ΔSsol0 (water, 298.15 K): −7.4 ± 0.3 J∙mol^−1·K^−1
- ζHsolv (water, 298.15 K): 58.2%
- ζTSsolv (water, 298.15 K): 41.8%
- −TΔSsolv0 (water, 298.15 K): 15.1 kcal/mol
- −ΔGsolv0 (water, 298.15 K): 5.9 kcal/mol
- −ΔHsolv0 (water, 298.15 K): 21 kcal/mol
- −ΔSsolv0 (water, 298.15 K): 212.0 J∙mol^−1·K^−1
